Laboratory results from patent US7354734B2, “Fungal proteins and nucleic acids encoding same” (priority 2003, dated 2008).
Values joined by “and” are separate entries in the source; they are usually repeats but may differ in a detail not shown here. Equal values may be shown once. Read-outs that look alike come from different tables or passages of the source. Where a SMILES comes first, the peptide text is derived from it. [ ]: non-standard residue; d: D form. The star is where a group is joined. Sta = CC(C)C[C@H](N)[C@@H](O)CC(=O)O; Isovaleryl = CC(C)CC(=O)*

What was measured:
ruLAP2 = ruLAP2 (Trichophyton rubrum, UniProt Q5QHG6); format: biochemical; conditions: for effect of inhibitor on ruLAP2 activity: Leu-AMC 5 mM; for ruLAP2 activity as percentage of control reaction without any cation / ruLAP2 activity as percentage of control reaction without inhibitor: Leu-MCA substrate, 15 min pre-incubation
[1] = target: T1, pkLAP (microsomal LAP from porcine kidney) (Sus scrofa, UniProt P15145); experiment: Effect of inhibitors and metallic cations on LAP activity (Leu-AMC); format: biochemical; conditions: for pkLAP activity as percentage of control reaction without any cation / pkLAP activity as percentage of control reaction without inhibitor / remaining activity at 100 µM: Leu-MCA substrate, 15 min pre-incubation; for effect of divalent cation on pkLAP activity: Leu-AMC, cations 0.5 mM and 1 mM; for effect of inhibitor on pkLAP activity: Leu-AMC 5 mM
T1 construct: purchased Sigma; host or cells: porcine kidney
T1 sequence (P15145 1-963): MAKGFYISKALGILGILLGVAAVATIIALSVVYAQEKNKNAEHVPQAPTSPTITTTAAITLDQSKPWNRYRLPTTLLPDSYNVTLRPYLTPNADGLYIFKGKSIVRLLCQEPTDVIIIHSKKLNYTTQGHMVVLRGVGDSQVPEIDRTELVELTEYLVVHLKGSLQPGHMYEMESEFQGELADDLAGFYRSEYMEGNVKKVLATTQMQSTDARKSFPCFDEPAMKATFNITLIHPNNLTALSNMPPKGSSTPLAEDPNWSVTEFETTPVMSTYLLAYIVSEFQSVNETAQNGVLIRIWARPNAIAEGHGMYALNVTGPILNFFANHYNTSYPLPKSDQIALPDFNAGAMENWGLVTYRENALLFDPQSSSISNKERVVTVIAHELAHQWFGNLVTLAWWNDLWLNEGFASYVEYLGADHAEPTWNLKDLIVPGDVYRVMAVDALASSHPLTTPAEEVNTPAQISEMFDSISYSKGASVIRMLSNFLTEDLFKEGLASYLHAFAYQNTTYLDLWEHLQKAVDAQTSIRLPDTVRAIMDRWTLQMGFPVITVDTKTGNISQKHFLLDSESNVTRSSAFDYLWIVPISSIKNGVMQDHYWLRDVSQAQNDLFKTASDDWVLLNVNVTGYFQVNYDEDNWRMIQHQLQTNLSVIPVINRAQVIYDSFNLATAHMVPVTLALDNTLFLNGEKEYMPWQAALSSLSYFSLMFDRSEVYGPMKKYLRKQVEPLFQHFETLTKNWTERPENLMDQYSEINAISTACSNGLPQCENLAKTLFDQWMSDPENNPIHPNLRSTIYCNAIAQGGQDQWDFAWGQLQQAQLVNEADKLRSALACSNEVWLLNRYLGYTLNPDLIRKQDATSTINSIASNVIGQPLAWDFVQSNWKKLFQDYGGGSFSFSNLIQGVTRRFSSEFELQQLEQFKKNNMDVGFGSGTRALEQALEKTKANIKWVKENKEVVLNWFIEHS

fuLAP1 = fuLAP1 (Aspergillus fumigatus, UniProt Q5VJG6); experiment: biochemical; format: biochemical; conditions: for effect of divalent cation on fuLAP1 activity: Leu-AMC, cations 0.5 mM and 1 mM; for fuLAP1 activity as percentage of control reaction without any cation / fuLAP1 activity as percentage of control reaction without inhibitor / remaining activity at 100 µM: Leu-MCA substrate, 15 min pre-incubation
ruLAP1 = ruLAP1 (Trichophyton rubrum, UniProt Q5QHG5); format: biochemical; conditions: for effect of inhibitor on ruLAP1 activity: Leu-AMC 5 mM
fuLAP2 = format: biochemical, Aspergillus fumigatus; conditions: for effect of divalent cation on fuLAP2 activity: Leu-AMC, cations 0.5 mM and 1 mM; for effect of inhibitor on fuLAP2 activity: Leu-AMC 5 mM
[2] = cation salt 0.5 mM, Leu-MCA substrate, 15 min pre-incubation
[3] = cation salt 1 mM, Leu-MCA substrate, 15 min pre-incubation
[4] = inhibitor 100 μM, Leu-MCA substrate, 15 min pre-incubation
[5] = read-out: pkLAP activity as percentage of control reaction without inhibitor
[6] = read-out: fuLAP1 activity as percentage of control reaction without inhibitor
[7] = inhibitor 100 μM, read-out: pkLAP activity as percentage of control reaction without inhibitor
[8] = inhibitor 100 μM, read-out: fuLAP1 activity as percentage of control reaction without inhibitor
[9] = inhibitor 20 μM, Leu-MCA substrate, 15 min pre-incubation

Sequence of ruLAP2 (Q5QHG6 20-495): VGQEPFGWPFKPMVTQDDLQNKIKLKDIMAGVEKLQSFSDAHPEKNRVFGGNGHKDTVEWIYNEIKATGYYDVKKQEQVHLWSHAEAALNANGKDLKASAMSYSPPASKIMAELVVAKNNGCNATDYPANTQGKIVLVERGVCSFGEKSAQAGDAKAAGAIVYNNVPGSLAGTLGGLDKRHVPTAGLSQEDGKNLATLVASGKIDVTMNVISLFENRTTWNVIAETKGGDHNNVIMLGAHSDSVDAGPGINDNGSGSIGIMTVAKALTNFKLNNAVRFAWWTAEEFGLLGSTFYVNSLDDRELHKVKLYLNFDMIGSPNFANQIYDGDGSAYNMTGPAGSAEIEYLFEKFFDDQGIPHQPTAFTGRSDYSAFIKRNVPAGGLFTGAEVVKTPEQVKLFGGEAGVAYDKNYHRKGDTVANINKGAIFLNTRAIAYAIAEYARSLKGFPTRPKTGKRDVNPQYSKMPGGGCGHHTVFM
Sequence of ruLAP1 (Q5QHG5 21-373): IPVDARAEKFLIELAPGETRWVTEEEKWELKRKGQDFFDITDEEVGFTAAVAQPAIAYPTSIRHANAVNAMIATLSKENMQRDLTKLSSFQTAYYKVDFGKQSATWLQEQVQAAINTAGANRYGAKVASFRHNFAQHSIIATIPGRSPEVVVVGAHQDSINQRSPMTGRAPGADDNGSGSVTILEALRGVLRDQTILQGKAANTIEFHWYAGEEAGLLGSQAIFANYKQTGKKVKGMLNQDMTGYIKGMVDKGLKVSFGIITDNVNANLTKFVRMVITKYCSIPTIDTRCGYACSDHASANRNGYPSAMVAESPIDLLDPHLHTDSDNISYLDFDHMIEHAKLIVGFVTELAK
Sequence of fuLAP1 (Q5VJG6 16-388): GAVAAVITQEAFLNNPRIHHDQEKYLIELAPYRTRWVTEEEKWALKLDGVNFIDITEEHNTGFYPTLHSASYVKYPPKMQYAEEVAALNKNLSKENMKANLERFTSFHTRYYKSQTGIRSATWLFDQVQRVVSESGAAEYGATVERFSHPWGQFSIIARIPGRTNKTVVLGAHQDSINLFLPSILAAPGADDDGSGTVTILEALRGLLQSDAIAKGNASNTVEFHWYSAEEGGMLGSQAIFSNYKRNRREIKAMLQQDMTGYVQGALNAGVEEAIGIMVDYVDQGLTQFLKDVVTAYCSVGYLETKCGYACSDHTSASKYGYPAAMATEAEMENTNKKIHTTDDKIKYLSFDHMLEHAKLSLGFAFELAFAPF

Compound	effect of inhibitor on ruLAP2 activity (ruLAP2)	pkLAP activity as percentage of control reaction without any cation ([1]; cation salt 0.5 mM)	pkLAP activity as percentage of control reaction without any cation ([1]; cation salt 1 mM)	ruLAP2 activity as percentage of control reaction without any cation (ruLAP2; cation salt 0.5 mM)	ruLAP2 activity as percentage of control reaction without any cation (ruLAP2; cation salt 1 mM)	fuLAP1 activity as percentage of control reaction without any cation (fuLAP1; cation salt 0.5 mM)	fuLAP1 activity as percentage of control reaction without any cation (fuLAP1; cation salt 1 mM)	ruLAP1 activity as percentage of control reaction without any cation (ruLAP1)	fuLAP2 activity as percentage of control reaction without any cation (fuLAP2; [2])	fuLAP2 activity as percentage of control reaction without any cation (fuLAP2; [3])	effect of inhibitor on ruLAP1 activity (ruLAP1)	effect of inhibitor on fuLAP1 activity (fuLAP1; Leu-AMC 5 mM)	also measured
CC(C)C[C@H](NC(=O)[C@H]1O[C@@H]1C(=O)O)C(=O)NCCCCN=C(N)N (relative stereo) [E64, L-trans-epoxysuccinyl-leu-4-guanidinobutylamide]	blunted the activity												
[Ca+2].[Cl-].[Cl-] [Ca^++, CaCl2]		177.4%	161.8%	126.6%	141.9%	54.9%	43.3%	151.7% and 175.6%	110.0%	165.4%			effect of divalent cation on fuLAP1 activity (fuLAP1): inhibited; effect of divalent cation on fuLAP2 activity (fuLAP2): activated
[Cl-].[Cl-].[Co+2] [Co^++, CoCl2]		876.1%	899.8%	591.2%	789.7%	104.3%	96.5%	210.2% and 202.1%	378.0%	662.7%			effect of divalent cation on ruLAP2 activity (ruLAP2; Leu-AMC, cations 0.5 mM and 1 mM): highly activated; effect of divalent cation on fuLAP2 activity (fuLAP2): highly activated
[Cl][Cu][Cl] [Cu^++, CuCl2]		1422.0%	1092.4%	50.9%	34.7%	25.8%	17.0%		68.9%	73.6%			effect of divalent cation on pkLAP activity [1]: highly activated
CC(C)C[C@H](NC(=O)[C@H]1O[C@@H]1C(=O)O)C(=O)NCCCCN=C(N)N [E 64]													pkLAP activity as percentage of control reaction without inhibitor ([1]; inhibitor 100 μM): 93%; ruLAP2 activity as percentage of control reaction without inhibitor (ruLAP2; inhibitor 100 μM): 34%; fuLAP1 activity as percentage of control reaction without inhibitor (fuLAP1; inhibitor 100 μM): 190%; ruLAP1 activity as percentage of control reaction without inhibitor (ruLAP1; 100 µM): 103%; fuLAP2 activity as percentage of control reaction without inhibitor (fuLAP2; [4]): 71%
O=C(O)CN(CCN(CC(=O)O)CC(=O)O)CC(=O)O [EDTA]	more sensitive										more sensitive		remaining activity at 1000 µM [1, 5]: 68%; remaining activity at 5000 µM [1, 5]: 99%; effect of inhibitor on fuLAP1 activity (fuLAP1): more sensitive; remaining activity at 1000 µM (fuLAP1; [6]): 19%; remaining activity at 5000 µM (fuLAP1; [6]): 16%; fuLAP2 activity as percentage of control reaction without inhibitor (fuLAP2): 50% and 77%
CC(=O)N[C@@H](CC(C)C)C(=O)N[C@@H](CC(C)C)C(=O)N[C@H](C=O)CCCNC(=N)N [Leupeptin, leupeptin]	no clear inhibitory effects										no clear inhibitory effects	no clear inhibitory effects	effect of inhibitor on pkLAP activity [1]: no clear inhibitory effects; remaining activity at 100 µM [1, 7]: 86%; remaining activity at 100 µM (fuLAP1; [8]): 149%; effect of inhibitor on fuLAP2 activity (fuLAP2): no clear inhibitory effects; fuLAP2 activity as percentage of control reaction without inhibitor (fuLAP2; [4]): 61%
[Cl-].[Cl-].[Mg+2] [MgCl2]		130.1%	146.1%	121.2%	110.2%	68.5%	72.6%	129.9% and 132.6%	97.6%	108.0%			
[Cl][Mn][Cl] [Mn^++, MnCl2]		157.6%	165.8%	77.5%	86.8%	25.9%	28.4%	120.7% and 105.2%	84.3%	140.2%			effect of divalent cation on fuLAP1 activity (fuLAP1): inhibited; effect of divalent cation on fuLAP2 activity (fuLAP2): activated
[Cl][Ni][Cl] [Ni, NiCl2]		1187.7%	1158.7%	130.5%	147.9%	51.7%	37.2%	74.8% and 58.1%	98.4%	149.3%			effect of divalent cation on pkLAP activity [1]: highly activated
Cc1ccc(S(=O)(=O)N[C@@H](CCCCN)C(=O)CCl)cc1 [TLCK]	no clear inhibitory effects										no clear inhibitory effects	no clear inhibitory effects	effect of inhibitor on pkLAP activity [1]: no clear inhibitory effects; pkLAP activity as percentage of control reaction without inhibitor ([1]; inhibitor 20 μM): 113%; ruLAP2 activity as percentage of control reaction without inhibitor (ruLAP2; inhibitor 20 μM): 96%; fuLAP1 activity as percentage of control reaction without inhibitor (fuLAP1; inhibitor 20 μM): 80%; ruLAP1 activity as percentage of control reaction without inhibitor (ruLAP1; [9]): 68%; effect of inhibitor on fuLAP2 activity (fuLAP2): no clear inhibitory effects; fuLAP2 activity as percentage of control reaction without inhibitor (fuLAP2; [9]): 120%
Cc1ccc(S(=O)(=O)N[C@@H](Cc2ccccc2)C(=O)CCl)cc1 [TPCK]	no clear inhibitory effects										no clear inhibitory effects	no clear inhibitory effects	effect of inhibitor on pkLAP activity [1]: no clear inhibitory effects; pkLAP activity as percentage of control reaction without inhibitor ([1]; inhibitor 20 μM): 108%; ruLAP2 activity as percentage of control reaction without inhibitor (ruLAP2; inhibitor 20 μM): 79%; fuLAP1 activity as percentage of control reaction without inhibitor (fuLAP1; inhibitor 20 μM): 95%; ruLAP1 activity as percentage of control reaction without inhibitor (ruLAP1; [9]): 68%; effect of inhibitor on fuLAP2 activity (fuLAP2): no clear inhibitory effects; fuLAP2 activity as percentage of control reaction without inhibitor (fuLAP2; [9]): 87%
CC(C)CC(=O)N[C@H](C(=O)N[C@H](C(=O)N[C@@H](CC(C)C)[C@@H](O)CC(=O)N[C@@H](C)C(=O)N[C@@H](CC(C)C)[C@@H](O)CC(=O)O)C(C)C)C(C)C [pepstatin, pepstatin A] (Isovaleryl-VV[Sta]A[Sta]-OH)											some sensitivity	some sensitivity	remaining activity at 100 µM [1, 7]: 64%; remaining activity at 100 µM (fuLAP1; [8]): 14%; fuLAP2 activity as percentage of control reaction without inhibitor (fuLAP2; [4]): 73%
